Values quoted from earlier work, collected in publication PMC3166015 (Emerging Infectious Diseases, 2011).

System: earliest pandemic (H1N1) 2009 virus isolates
Conditions: cited from earlier work

Row | SMILES | susceptibility of earliest virus isolates
1 | NC12CC3CC(CC(C3)C1)C2 [amantadine] | resistant
2 | CC(N)C12CC3CC(CC(C3)C1)C2 (stereo not shown) [rimantadine] | resistant
3 | CC(=O)N[C@H]1[C@H]([C@H](O)[C@H](O)CO)OC(C(=O)O)=C[C@@H]1N=C(N)N [Zanamivir, zanamivir] | sensitive
4 | CCOC(=O)C1=C[C@@H](OC(CC)CC)[C@H](NC(C)=O)[C@@H](N)C1 [Oseltamivir, oseltamivir] | sensitive
